Measured values published in ChEMBL document CHEMBL3085706, “Scorpiand-like azamacrocycles prevent the chronic establishment of Trypanosoma cruzi in a murine model” (Eur J Med Chem, 2013).
Calls of active or inactive are those of the source. The rule behind the calls is not given here.

Tests used:
Trypanosoma cruzi [1] = assay: Trypanocidal activity against extracellular trypomastigote form of Trypanosoma cruzi IRHOD/CO/2008/SN3 after 24 hrs by Neubauer hemocytometric analysis; type: functional, organism-based; settings: IRHOD/CO/2008/SN3, 24 h
Trypanosoma cruzi [2] = assay: Trypanocidal activity against intracellular amastigote form of Trypanosoma cruzi IRHOD/CO/2008/SN3 infected in African green monkey Vero cells after 72 hrs by Giemsa staining assay; type: functional, organism-based; settings: IRHOD/CO/2008/SN3, Vero
Trypanosoma cruzi [3] = assay: Trypanocidal activity against extracellular epimastigote form of Trypanosoma cruzi IRHOD/CO/2008/SN3 after 72 hrs by Neubauer hemocytometric analysis; type: functional, organism-based; settings: IRHOD/CO/2008/SN3, 72 h
[4] = Selectivity index, ratio of IC50 for African green monkey Vero cells to IC50 for extracellular trypomastigote form of Trypanosoma cruzi IRHOD/CO/2008/SN3; type: toxicity, cell-based; settings: read-out: Ratio IC50
[5] = Selectivity index, ratio of IC50 for African green monkey Vero cells to IC50 for intracellular amastigote form of Trypanosoma cruzi IRHOD/CO/2008/SN3; type: toxicity, cell-based; settings: read-out: Ratio IC50
[6] = Selectivity index, ratio of IC50 for African green monkey Vero cells to IC50 for extracellular epimastigote form of Trypanosoma cruzi IRHOD/CO/2008/SN3; type: toxicity, cell-based; settings: read-out: Ratio IC50
Vero = assay: Cytotoxicity against African green monkey Vero cells after 72 hrs by flow cytometric analysis; type: cell-based; settings: Chlorocebus sabaeus
Trypanosoma cruzi [7] = assay: Trypanocidal activity against epimastigote form of Trypanosoma cruzi IRHOD/CO/2008/SN3 assessed as induction of ethanol production at IC25 after 96 hrs by NMR spectra analysis; type: functional, organism-based
Trypanosoma cruzi [8] = assay: Trypanocidal activity against epimastigote form of Trypanosoma cruzi IRHOD/CO/2008/SN3 assessed as inhibition of acetate excretion at IC25 after 96 hrs by NMR spectra analysis; type: functional, organism-based
Trypanosoma cruzi [9] = assay: Trypanocidal activity against epimastigote form of Trypanosoma cruzi IRHOD/CO/2008/SN3 assessed as inhibition of succinate excretion at IC25 after 96 hrs by NMR spectra analysis; type: functional, organism-based
[10] = Inhibition of Escherichia coli Mn-SOD assessed as reduction of nitrobluetetrazolium measured for 10 mins by spectrophotometric analysis
[11] = Inhibition of Fe-SOD in Trypanosoma cruzi IRHOD/CO/2008/SN3 epimastigotes assessed as reduction of nitrobluetetrazolium measured for 10 mins by spectrophotometric analysis
Trypanosoma cruzi [12] = assay: Inhibition of Fe-SOD in Trypanosoma cruzi IRHOD/CO/2008/SN3 epimastigotes assessed as reduction of nitrobluetetrazolium at 12.5 to 25 uM measured for 10 mins by spectrophotometric analysis relative to control
Trypanosoma cruzi [13] = assay: Trypanocidal activity against epimastigote form of Trypanosoma cruzi IRHOD/CO/2008/SN3 assessed as loss of plasma membrane integrity at IC25 after 96 hrs by transmission electron microscopic analysis; type: functional, organism-based
Trypanosoma cruzi [14] = assay: Trypanocidal activity against epimastigote form of Trypanosoma cruzi IRHOD/CO/2008/SN3 assessed as excessive dilation of kinetoplast at IC25 after 96 hrs by transmission electron microscopic analysis; type: functional, organism-based
Trypanosoma cruzi [15] = assay: Trypanocidal activity against epimastigote form of Trypanosoma cruzi IRHOD/CO/2008/SN3 assessed as cytoplasmic vacuolization and disintegration at IC25 after 96 hrs by transmission electron microscopic analysis; type: functional, organism-based
Trypanosoma cruzi [16] = assay: Trypanocidal activity against epimastigote form of Trypanosoma cruzi IRHOD/CO/2008/SN3 assessed as lysis of epimastigotes at IC25 after 96 hrs by transmission electron microscopic analysis; type: functional, organism-based
Trypanosoma cruzi [17] = assay: Trypanocidal activity against bloodstream trypomastigote form of Trypanosoma cruzi IRHOD/CO/2008/SN3 infected in BALB/c mouse assessed as reduction of anti-parasitic Ig-G level in serum at 5 mg/kg/day, ip administered for 5 days measured over 40 to 120 days post-infection by ELISA; type: functional, organism-based
Trypanosoma cruzi [18] = assay: Trypanocidal activity against bloodstream trypomastigote form of Trypanosoma cruzi IRHOD/CO/2008/SN3 infected in BALB/c mouse assessed as reduction of circulating parasite burden at 5 mg/kg, ip administered for 5 to 10 days measured 22 to 60 days post-infection by Neubauer hemocytometric analysis; type: functional, organism-based; set-up: dose 5 mg/kg
Trypanosoma cruzi [19] = assay: Trypanocidal activity against trypomastigote form of Trypanosoma cruzi IRHOD/CO/2008/SN3 infected in African green monkey Vero cells assessed as inhibition of trypomastigotes released in culture medium at IC25 relative to control; type: functional
Trypanosoma cruzi [20] = assay: (§1) Trypanocidal activity against amastigote form of Trypanosoma cruzi IRHOD/CO/2008/SN3 infected in African green monkey Vero cells assessed as inhibition of amastigotes load per cell at IC25 preincubated for 12 hrs followed by compound washout measured after 10 days by Giemsa staining-based microscopic analysis relative to control; type: functional
Trypanosoma cruzi [21] = assay: as §1, with “parasite infection rate” for “amastigotes load per cell”; type: functional
Trypanosoma cruzi [22] = assay: Trypanocidal activity against epimastigote form of Trypanosoma cruzi IRHOD/CO/2008/SN3 assessed as inhibition of lactate excretion at IC25 after 96 hrs by NMR spectra analysis; type: functional, organism-based
Trypanosoma cruzi [23] = assay: Trypanocidal activity against epimastigote form of Trypanosoma cruzi IRHOD/CO/2008/SN3 assessed as inhibition of alanine excretion at IC25 after 96 hrs by NMR spectra analysis; type: functional, organism-based
Trypanosoma cruzi [24] = assay: Trypanocidal activity against epimastigote form of Trypanosoma cruzi IRHOD/CO/2008/SN3 assessed as dispersed cytoplasm at IC25 after 96 hrs by transmission electron microscopic analysis; type: functional, organism-based
Trypanosoma cruzi [25] = assay: Trypanocidal activity against epimastigote form of Trypanosoma cruzi IRHOD/CO/2008/SN3 assessed as empty mitochondria at IC25 after 96 hrs by transmission electron microscopic analysis; type: functional, organism-based
Trypanosoma cruzi [26] = assay: Trypanocidal activity against epimastigote form of Trypanosoma cruzi IRHOD/CO/2008/SN3 assessed as abundant larger acidocalcisomes at IC25 after 96 hrs by transmission electron microscopic analysis; type: functional, organism-based
Trypanosoma cruzi [27] = assay: Trypanocidal activity against epimastigote form of Trypanosoma cruzi IRHOD/CO/2008/SN3 assessed as appearance of strongly electrondensed glycosomes at IC25 after 96 hrs by transmission electron microscopic analysis; type: functional, organism-based
Trypanosoma cruzi [28] = assay: Trypanocidal activity against epimastigote form of Trypanosoma cruzi IRHOD/CO/2008/SN3 assessed as appearance of large vacuoles at IC25 after 96 hrs by transmission electron microscopic analysis; type: functional, organism-based
Mus musculus [29] = assay: Hepatotoxicity in BALB/c mouse infected with bloodstream trypomastigote form of Trypanosoma cruzi IRHOD/CO/2008/SN3 assessed as presence of necrotic cells in portal space at 5 mg/kg/day, ip administered for 5 days measured 150 days post-infection by light microscopic analysis; type: toxicity, organism-based; set-up: route intraperitoneal; settings: in vivo, 3600 h
Mus musculus [30] = assay: Hepatotoxicity in BALB/c mouse infected with bloodstream trypomastigote form of Trypanosoma cruzi IRHOD/CO/2008/SN3 assessed as hepatic destruction in portal space at 5 mg/kg/day, ip administered for 5 days measured 150 days post-infection by light microscopic analysis; type: toxicity, organism-based; set-up: route intraperitoneal; settings: in vivo, 3600 h
Mus musculus [31] = assay: Hepatotoxicity in BALB/c mouse infected with bloodstream trypomastigote form of Trypanosoma cruzi IRHOD/CO/2008/SN3 assessed as centrilobular destruction of hepatic vein at 5 mg/kg/day, ip administered for 5 days measured 150 days post-infection by light microscopic analysis; type: toxicity, organism-based; set-up: route intraperitoneal; settings: in vivo, 3600 h
Mus musculus [32] = assay: Hepatotoxicity in BALB/c mouse infected with bloodstream trypomastigote form of Trypanosoma cruzi IRHOD/CO/2008/SN3 assessed as lymphocytic infiltration in portal tracts at 5 mg/kg/day, ip administered for 5 days measured 150 days post-infection by light microscopic analysis; type: toxicity, organism-based; set-up: route intraperitoneal; settings: in vivo, 3600 h
Mus musculus [33] = assay: Hepatotoxicity in BALB/c mouse infected with bloodstream trypomastigote form of Trypanosoma cruzi IRHOD/CO/2008/SN3 assessed as vessels with thickened walls at 5 mg/kg/day, ip administered for 5 days measured 150 days post-infection by light microscopic analysis; type: toxicity, organism-based; set-up: route intraperitoneal; settings: in vivo
Mus musculus [34] = assay: Hepatotoxicity in BALB/c mouse infected with bloodstream trypomastigote form of Trypanosoma cruzi IRHOD/CO/2008/SN3 assessed as delocalized hepatic destruction at 5 mg/kg/day, ip administered for 5 days measured 150 days post-infection by light microscopic analysis; type: toxicity, organism-based; set-up: route intraperitoneal; settings: in vivo, 3600 h
Mus musculus [35] = assay: Hepatotoxicity in BALB/c mouse infected with bloodstream trypomastigote form of Trypanosoma cruzi IRHOD/CO/2008/SN3 assessed as granuloma with lymphocytic infiltrate at 5 mg/kg/day, ip administered for 5 days measured 150 days post-infection by light microscopic analysis; type: toxicity, organism-based; set-up: route intraperitoneal; settings: in vivo, 3600 h
Trypanosoma cruzi [36] = assay: Trypanocidal activity against bloodstream trypomastigote form of Trypanosoma cruzi IRHOD/CO/2008/SN3 infected in BALB/c mouse assessed as reduction of parasite load in liver at 5 mg/kg/day, ip administered for 5 days measured 150 days post-infection by PCR analysis; type: functional, organism-based
Trypanosoma cruzi [37] = assay: (§2) Trypanocidal activity against bloodstream trypomastigote form of Trypanosoma cruzi IRHOD/CO/2008/SN3 infected in cyclophosphamide monohydrate-treated BALB/c immunosuppression mouse model assessed as reduction of parasite load in liver at 5 mg/kg/day, ip administered for 5 days measured 150 days post-infection by PCR analysis; type: functional, organism-based
Trypanosoma cruzi [38] = assay: as §2, with “heart” for “liver”; type: functional, organism-based
Trypanosoma cruzi [39] = assay: Trypanocidal activity against bloodstream trypomastigote form of Trypanosoma cruzi IRHOD/CO/2008/SN3 infected in BALB/c mouse assessed as reduction of parasite load in heart at 5 mg/kg/day, ip administered for 5 days measured 150 days post-infection by PCR analysis; type: functional, organism-based
Trypanosoma cruzi [40] = assay: as §2, with “reactivation” for “reduction”, “parasitemia level” for “parasite load in liver”, “(reference value: 91.7 %)” for “by PCR analysis”; type: functional; settings: route intraperitoneal
Trypanosoma cruzi [41] = assay: Trypanocidal activity against bloodstream trypomastigote form of Trypanosoma cruzi IRHOD/CO/2008/SN3 infected in cyclophosphamide monohydrate-treated BALB/c immunosuppression mouse model assessed as reduction of total anti-parasitic Ig-G level in serum at 5 mg/kg/day, ip administered for 5 days measured 150 days post-infection by ELISA; type: functional, organism-based
Mus musculus [42] = assay: Hepatotoxicity in BALB/c mouse infected with bloodstream trypomastigote form of Trypanosoma cruzi IRHOD/CO/2008/SN3 assessed as interstitial hemorrhage at 5 mg/kg/day, ip administered for 5 days measured 150 days post-infection by light microscopic analysis; type: toxicity, organism-based; set-up: route intraperitoneal; settings: in vivo, 3600 h
Trypanosoma cruzi [43] = assay: Trypanocidal activity against epimastigote form of Trypanosoma cruzi IRHOD/CO/2008/SN3 assessed as effect on succinate production at IC25 after 96 hrs by NMR spectra analysis; type: functional, organism-based

| SMILES | IC50 (Trypanosoma cruzi [1]) [µM] | IC50 (Trypanosoma cruzi [2]) [µM] | IC50 (Trypanosoma cruzi [3]) [µM] | selectivity ratio [4] | selectivity ratio [5] | selectivity ratio [6] | IC50 (Vero) [µM] | Activity (Trypanosoma cruzi [7]) | inhibition (Trypanosoma cruzi [8]) | IC50 [10] [µM] | IC50 [11] [µM] | inhibition (Trypanosoma cruzi [12]) [%] | Activity (Trypanosoma cruzi [17]) | Activity (Trypanosoma cruzi [18]) | inhibition (INH) (Trypanosoma cruzi [19]) [%] | inhibition (INH) (Trypanosoma cruzi [20]) [%] | inhibition (INH) (Trypanosoma cruzi [21]) [%] | inhibition (Trypanosoma cruzi [22]) | inhibition (Trypanosoma cruzi [23]) | further results |
| --- | --- | --- | --- | --- | --- | --- | --- | --- | --- | --- | --- | --- | --- | --- | --- | --- | --- | --- | --- | --- |
| NCCCNCCN1CCNCc2cccc(n2)CNCC1 | 27.6 | 20 | 21 | 6.1 | 8.3 | 8 | 167 | – | – | – | – | – | – | – | – | – | – | – | – | – |
| Br.NCCN1CCNCc2cccc(n2)CNCC1 | 16.3 | 7.8 | 6.5 | 16.5 | 34.5 | 41.4 | 270 | Active | Active | 111 | 12.5 | 100 | Active | Active | 58 | 46 | 73 | Active | Active | inhibition (Trypanosoma cruzi [9]): Active; Activity (Trypanosoma cruzi [13]): Active; Activity (Trypanosoma cruzi [14]): Active; Activity (Trypanosoma cruzi [15]): Active; Activity (Trypanosoma cruzi [16]): Active |
| Cl.c1cncc(CNCCN2CCNCc3cccc(n3)CNCC2)c1 | 19.7 | 9.5 | 8 | 21.6 | 44.8 | 52.7 | 425 | Active | Active | 63.6 | 10.8 | 100 | Active | Active | 89 | 69 | 86 | Active | Active | Activity (Trypanosoma cruzi [24]): Active; Activity (Trypanosoma cruzi [25]): Active; Activity (Trypanosoma cruzi [26]): Active; Activity (Trypanosoma cruzi [27]): Active; Activity (Trypanosoma cruzi [28]): Active; Activity (Mus musculus [29]): Non-toxic; Activity (Mus musculus [30]): Non-toxic; Activity (Mus musculus [31]): Non-toxic; Activity (Mus musculus [32]): Toxic; Activity (Mus musculus [33]): Toxic; Activity (Mus musculus [34]): Toxic; Activity (Mus musculus [35]): Toxic; Activity (Trypanosoma cruzi [36]): Active; Activity (Trypanosoma cruzi [37]): Active; Activity (Trypanosoma cruzi [38]): Active; Activity (Trypanosoma cruzi [39]): Active; Activity (Trypanosoma cruzi [40]): 5.6%; Activity (Trypanosoma cruzi [41]): Active; Activity (Mus musculus [42]): Non-toxic; Activity (Trypanosoma cruzi [43]): inactive |
